Source: US8562975B2, “Method for stabilizing reduced coenzyme Q10 and composition therefor” (Kaneka Corporation, priority 2002, dated 2013)

Tests used:
[1] = Storage stability of reduced coenzyme Q10 compositions in the air at 40° C., light-shielded, 3 days (HPLC weight ratio); type: physicochemical; conditions: vitamin E content high (4.11% by weight based on the system excluding coenzyme Q10)
Procedure: The purity and reduced coenzyme Q10/oxidized coenzyme Q10 ratio (weight ratio) were determined by the following HPLC analysis.
C18 (product of Waters), 250 mm (in length), 4.6 mm (in inside diameter): mobile phase; C2H5OH/CH3OH=4/3 (v/v): detection wavelength; 210 nm: flow rate; 1 ml/min: retention time of reduced coenzyme Q10; 9.1 min: retention time of oxidized coenzyme Q10; 13.3 min.
The crystals obtained in Production Example 1 were added to soybean oil, glycerol, and a mixture thereof, respectively, to a concentration of 6% by weight, and the resulting mixtures were stored in the air at 40° C. under a light-shielded condition for 3 days, and the reduced coenzyme Q10/oxidized coenzyme Q10 weight ratios in the solutions were determined.
The crystals obtained in Production Example 1 were added to various fats and oils specified in Table 2, respectively, to a concentration of 6% by weight, and the resulting mixtures were stored in the air at 40° C. under a light-shielded condition for 3 days, and the reduced coenzyme Q10/oxidized coenzyme Q10 weight ratios in the solutions were determined.
The crystals obtained in Production Example 1 were added to olive oil to a concentration of 6% by weight, and the resulting mixture was stored in the air at 40° C. under a light-shielded condition for 3 days. […]

[2] = Solubility of reduced coenzyme Q10 crystals in fats and oils at 30° C.; type: physicochemical
Procedure: The solubility of the crystals obtained in Production Example 1 in medium-chain fatty acid triglyceride (MCT, C8:C10=6:4), soybean oil, safflower oil, or rice oil at 30° C. is shown in Table 8.

Compound	effect on stabilization of reduced coenzyme Q10, in words [1]	Solubility ([2]; in MCT (C8:C10=6:4) at 30° C.) [wt %]	Solubility ([2]; in rice oil at 30° C.) [wt %]	Solubility ([2]; in safflower oil at 30° C.) [wt %]	Solubility ([2]; in soybean oil at 30° C.) [wt %]
vitamin E	inhibits the stabilization of reduced coenzyme Q10				
COc1c(O)c(C)c(C/C=C(\C)CC/C=C(\C)CC/C=C(\C)CC/C=C(\C)CC/C=C(\C)CC/C=C(\C)CC/C=C(\C)CC/C=C(\C)CC/C=C(\C)CCC=C(C)C)c(O)c1OC [Compar. Ex. 1, reduced coenzyme Q10]		22.4	10.2	11.1	10.9
